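A five-concentration, 48-hour dose response in 96-well plates underlies each endpoint, interpolated linearly between surrounding concentrations. GI50 marks 50% less growth.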 The source made the active and inactive calls. No stated cut-off is given here; in the data, active = GI50 up to about 1.1 µM and inactive = higher.
Experiments:
Test in all cases: NCI tumour cell line growth inhibition, 48 h
[1] = system: NCI-H460
[2] = system: HOP-62
[3] = system: OVCAR-8
[4] = system: EKVX
[5] = system: HT-29
[6] = system: OVCAR-5
[7] = system: Malme-3M
[8] = system: SW-620
[9] = system: SK-MEL-2
[10] = system: OVCAR-4
[11] = system: COLO 205
[12] = system: U-251
[13] = system: RPMI-8226
[14] = system: SR
[15] = system: CCRF-CEM
[16] = system: HCC 2998
[17] = system: MOLT-4
[18] = system: M14
[19] = system: UO-31

Measured: GI50

COc1ccc(C(=O)NCCC2=CCCCC2)cc1
inactive: [1] > 100 µM | [2] > 100 µM | [3] > 100 µM | [4] > 100 µM | [5] > 100 µM | [6] > 100 µM | [7] > 100 µM | [8] > 100 µM | [9] > 100 µM | [10] > 100 µM | [11] > 100 µM | [12] > 100 µM | [13] > 100 µM | [14] > 100 µM | [15] > 100 µM

O=C1/C(=C/c2ccc3c(c2)OCO3)SC2C=Nc3ccccc3N12 (centres undefined)
inactive: [1] > 100 µM | [2] > 100 µM | [16] > 100 µM | [3] > 100 µM | [4] > 100 µM | [5] > 100 µM | [17] > 100 µM | [6] > 100 µM | [7] > 100 µM | [8] > 100 µM | [9] > 100 µM | [10] 63.4 µM | [11] > 100 µM | [18] > 100 µM | [12] > 100 µM | [19] > 100 µM

O=C(c1nc2ccc(Cl)cc2[nH]c1=O)C(O)c1ccco1 (centres undefined)
inactive: [1] 57.9 µM | [16] 44 µM | [4] > 100 µM | [5] 83.6 µM | [17] 8.57 µM | [6] > 100 µM | [7] > 100 µM | [8] > 100 µM | [9] 87.1 µM | [10] > 100 µM | [11] > 100 µM | [18] 29.4 µM | [15] 1.37 µM | [19] 42.9 µM

O=C(Nc1ccc(Br)cc1)C(=O)C(C(=O)c1ccccc1F)C1OC(=O)c2ccccc21 (centres undefined)
inactive: [1] 31.8 µM | [2] 22.8 µM | [16] 16.9 µM | [3] 24.8 µM | [4] 81.1 µM | [5] 39.6 µM | [17] 25.3 µM | [6] 48 µM | [7] 15.3 µM | [8] 31.9 µM | [9] 21.8 µM | [10] 24.7 µM | [11] 20.4 µM | [18] 16.5 µM | [12] 19.3 µM | [13] 17.8 µM | [15] 18.6 µM | [19] 22.3 µM

CN(C)CCNC(=O)c1cccc2c1nc(-c1ccccn1)c1ccccc12
inactive: [1] 7.26 µM | [2] 15.1 µM | [16] 15.7 µM | [3] 16 µM | [4] 22.7 µM | [5] 16.3 µM | [17] 3.87 µM | [6] 14.8 µM | [8] 11.2 µM | [9] 18.8 µM | [10] 17.3 µM | [11] 12.3 µM | [18] 15.8 µM | [12] 16.3 µM | [15] 13.5 µM | [19] 10.4 µM

From ChEMBL document CHEMBL1201862, “PubChem BioAssay data set” (2004)
